Measured values reported in the NIST ThermoML archive (doi:10.1016/j.tca.2017.09.023).
Several values for one entry are separate records, joined by “and”; a condition that tells them apart may be missing. Equal entries are not always repeated. Numbers after ± are expanded uncertainties.

Key:
[1] = for Normal melting temperature: DTA; for Triple point temperature: DSC
[2] = Molar enthalpy of transition or fusion; conditions: DSC

Normal melting temperature ([1]; Crystal 1)	Triple point temperature ([1]; Crystal 2) [K]	Triple point temperature ([1]; Crystal 3) [K]	Molar enthalpy of transition or fusion ([2]; Crystal 2) [kcal/mol]	Molar enthalpy of transition or fusion ([2]; Crystal 3) [kcal/mol]	SMILES	Molar enthalpy of transition or fusion ([2]; Crystal) [kcal/mol]	Normal melting temperature ([1]; Crystal)
166.1 ± 1.1 °C and 167.5 ± 2 °C	384.9 ± 1.2	117.4 ± 1.2	0.399 ± 0.335	0.136 ± 0.335	Cc1c(C)c(C)c(C)c(C)c1C [hexamethylbenzene]	4.91 ± 0.359	
					c1ccc(-c2ccccc2-c2ccccc2)cc1 [o-terphenyl]		57.2 ± 2 °C
					Nc1c(Cl)c(Cl)c(Cl)c(Cl)c1Cl [pentachlorobenzenamine]	4.42 ± 0.311	235.4 ± 1.1 °C
163.0 ± 1.1 °C	411.6 ± 1.2		1.03 ± 0.335		Cc1c(C)c(C)c(Br)c(C)c1C [bromopentamethylbenzene]	3.61 ± 0.359	
					Clc1c(Cl)c(Cl)c(Cl)c(Cl)c1Cl [hexachlorobenzene]	5.72 ± 0.311	230.1 ± 2 °C and 231 ± 1.1 °C
